Laboratory results reported in patent US10457707B2, “Substituted urea depsipeptide analogs as activators of the CLPP endopeptidase” (priority 2015, dated 2019).
Converted amounts (≈) assume the structure as drawn. Like-named read-outs stand apart in the source and are kept apart here. *1 amine or outer side, *2 acyl side, *3 side chain or, on linkers, in order; H or OH if unused. Where a SMILES comes first, the peptide text is derived from it. Bridges are numbered along the chain shown (N, C = ends). [ ]: non-standard residue; d: D form. The star is where a group is joined. Piperazine(2S-CO,4-Me) = CN1CCN[C@H](C(=O)O)C1; NH(1,3-benzodioxol-5-yl) = c1cc2c(cc1N*)OCO2; Phe(3,5-F2) = N[C@@H](Cc1cc(F)cc(F)c1)C(=O)O; Morpholine(3S-CO) = O=C(O)[C@@H]1COCCN1; Pro(4S-Me) = C[C@@H]1CN[C@H](C(=O)O)C1; NH(4-Cl-2-F-phenyl) = Fc1cc(Cl)ccc1N*; Pro(4R-Me) = C[C@H]1CN[C@H](C(=O)O)C1; NMeaThr = CN[C@H](C(=O)O)[C@H](C)O; Hyp = O=C(O)[C@@H]1C[C@@H](O)CN1; NH(4-Me-phenyl) = Cc1ccc(N*)cc1; aThr = C[C@H](O)[C@H](N)C(=O)O; Pip = O=C(O)[C@@H]1CCCCN1; NMeA = CN[C@@H](C)C(=O)O; X4 = c1cc2c(cc1N*)CCC2; CO = O=C([*:1])[*:2]

Key:
Sa-ClpP = target: T1, Sa-ClpP (Staphylococcus aureus, UniProt Q2G036); experiment: ADEP displacement fluorescence polarization assay (FP probe ADEP 2591); type: binding
T1 construct: made in house; host or cells: E. coli BL21(DE3)
T1 sequence (Q2G036 1-195): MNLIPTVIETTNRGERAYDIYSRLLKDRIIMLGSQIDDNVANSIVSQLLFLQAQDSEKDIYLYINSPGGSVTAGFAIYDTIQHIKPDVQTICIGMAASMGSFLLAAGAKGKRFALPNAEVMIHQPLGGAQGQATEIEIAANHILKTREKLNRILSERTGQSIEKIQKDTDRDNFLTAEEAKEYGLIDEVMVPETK
In short: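 Probe displacement was measured in mP after compounds sat 120 min at room temperature with pre-equilibrated (1 h) Sa-ClpP (15 μM) and ADEP 2591 FP probe (50 nM) in pH 8.0 Tris-HCl with 2% DMSO. Data were scaled between DMSO and 200 μM ADEP 2378 and fit by variable-slope log-inhibitor regression.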

[1] = tested on: Enterococcus faecalis, ATCC 33186; experiment: Minimal inhibitory concentration assay (microbroth dilution); type: cell-based
In short: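 Compound is serially diluted two-fold in the appropriate broth, and bacterial inoculum at about 10^5 cfu/mL is added so the highest final concentration is 200 μM. Plates stay overnight at 37 °C under aerobic conditions before growth is scored by eye.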

[2] = Enterococcus faecalis, ATCC33186; read-out: Minimal Inhibitory Concentrations E. faecalis ATCC 33186
[3] = Enterococcus faecalis, ATCC33186, read-out: Minimal Inhibitory Concentrations E. faecalis ATCC 33186
[4] = displacement of FP probe ADEP 2591 from Sa-ClpP, read-out: ADEP Displacement IC50

Row | SMILES | IC50 (Sa-ClpP) | MIC [1, 2] | MIC [1, 3] | IC50 (Sa-ClpP; [4])
1 | C[C@@H]1C[C@H]2C(=O)OC[C@H](NC(=O)[C@H](Cc3cc(F)cc(F)c3)NC(=O)Nc3ccc(Cl)cc3F)C(=O)N3CCC[C@H]3C(=O)N3CCN(C)C[C@H]3C(=O)N[C@@H](C)C(=O)N2C1 [Compound 330, (S)-2-(3-(4-chloro-2-fluorophenyl)ureido)-3-(3,5-difluorophenyl)-N-((6aS,12S,15aS,17R,21S,23aS)-2,17,21-trimethyl-6,11,15,20,23-pentaoxooctadecahydro-2H,6H,11H,15H-pyrazino[2,1-i]dipyrrolo[2,1-c:2′,1′-l][1]oxa[4,7,10,13]tetraazacyclohexadecin-12-yl)propanamide] ({NH(4-Cl-2-F-phenyl)-CO}-[Phe(3,5-F2)]SP[Piperazine(2S-CO,4-Me)]A[Pro(4R-Me)]; ester 2-C) | 3.74 ± 0.2 µM | < 0.02 µM | – | –
2 | C[C@@H]1C[C@H]2C(=O)O[C@@H](C)[C@H](NC(=O)[C@H](Cc3cc(F)cc(F)c3)NC(=O)Nc3ccc4c(c3)CCC4)C(=O)N3CCC[C@H]3C(=O)N3CCCC[C@H]3C(=O)N[C@@H](C)C(=O)N2C1 [Compound 302, (S)-3-(3,5-difluorophenyl)-2-(3-(2,3-dihydro-1H-INDEN-5-yl)ureido)-N-((2R,6S,8aS,14aS,20S,21S,23aS)-2,6,21-trimethyl-5,8,14,19,23-pentaoxooctadecahydro-1H,5H,14H,19H-pyrido[2,1-i]dipyrrolo[2,1-c:2′,1′-l][1]oxa[4,7,10,13]tetraazacyclohexadecin-20-yl)propanamide] ({X4-CO}-[Phe(3,5-F2)][aThr]P[Pip]A[Pro(4R-Me)]; ester 2-C) | 9.64 ± 0.6 µM | – | 0.02 µM (≈ 0.0167 µg/mL) | –
3 | C[C@@H]1C[C@H]2C(=O)OC[C@H](NC(=O)[C@H](Cc3cc(F)cc(F)c3)NC(=O)Nc3ccc4c(c3)OCO4)C(=O)N3C[C@H](O)C[C@H]3C(=O)N3CCOC[C@H]3C(=O)N[C@@H](C)C(=O)N2C1 [Compound 318, (S)-2-(3-(benzo[d][1,3]dioxol-5-yl)ureido)-3-(3,5-difluorophenyl)-N-((6aS,8R,12S,15aS,17R,21S,23aS)-8-hydroxy-17,21-dimethyl-6,11,15,20,23-pentaoxooctadecahydro-6H,11H,15H-[1,4]oxazino[3,4-i]dipyrrolo[2,1-c:2′,1′-l][1]oxa[4,7,10,13]tetraazacyclo-hexadecin-12-yl)propanamide] ({NH(1,3-benzodioxol-5-yl)-CO}-[Phe(3,5-F2)]S[Hyp][Morpholine(3S-CO)]A[Pro(4R-Me)]; ester 2-C) | 6.54 ± 0.5 µM | > 20 µM | – | –
4 | Cc1ccc(NC(=O)N[C@@H](Cc2cc(F)cc(F)c2)C(=O)N[C@@H]2C(=O)N3CCC[C@H]3C(=O)N(C)[C@@H]([C@H](C)O)C(=O)N[C@@H](C)C(=O)N3C[C@@H](C)C[C@H]3C(=O)O[C@H]2C)cc1 [Compound 202, (S)-3-(3,5-difluorophenyl)-N-((2S,6S,9S,11aS,17S,18S,20aS)-9-((S)-1-hydroxyethyl)-2,6,10,18-tetramethyl-5,8,11,16,20-pentaoxohexadecahydro-1H,5H,16H-dipyrrolo[2,1-c:2′,1′-L][1]oxa[4,7,10,13]tetraazacyclohexadecin-17-yl)-2-(3-(p-tolyl)ureido)propanamide] ({NH(4-Me-phenyl)-CO}-[Phe(3,5-F2)][aThr]P[NMeaThr]A[Pro(4S-Me)]; ester 2-C) | – | – | 0.049 µM (≈ 0.0398 µg/mL) | 6.6 ± 0.4 µM
5 | Cc1ccc(NC(=O)N[C@@H](Cc2cc(F)cc(F)c2)C(=O)N[C@@H]2C(=O)N3C[C@H](O)C[C@H]3C(=O)N(C)[C@@H](C)C(=O)N[C@@H](C)C(=O)N3C[C@@H](C)C[C@H]3C(=O)O[C@H]2C)cc1 [Compound 214, (S)-3-(3,5-difluorophenyl)-N-((2S,6S,9S,11aS,13R,17S,18S,20aS)-13-hydroxy-2,6,9,10,18-pentamethyl-5,8,11,16,20-pentaoxohexadecahydro-1H,5H,16H-dipyrrolo[2,1-c:2′,1′-l][1]oxa[4,7,10,13]tetraazacyclohexadecin-17-yl)-2-(3-(p-tolyl)ureido)propanamide] ({NH(4-Me-phenyl)-CO}-[Phe(3,5-F2)][aThr][Hyp][NMeA]A[Pro(4S-Me)]; ester 2-C) | – | – | 0.195 µM (≈ 0.156 µg/mL) | 5.8 ± 0.3 µM
